According to ChEMBL document CHEMBL4665887, “Identification, Structure-Activity Relationships of Marine-Derived Indolocarbazoles, and a Dual PKCθ/δ Inhibitor with Potent Antipancreatic Cancer Efficacy” (J Med Chem, 2020):
Activity calls are given as the source filed them. The rule behind the calls is not given here.

What was measured:
[1] = target: Protein kinase C beta type (Homo sapiens) (UniProt P05771); experiment: Inhibition of PKC(pan)/beta II phosphorylation at S660 residue in human BXPC-3 cells at 1 uM incubated for 4 hrs by Western blot analysis; type: cell-based
Chain of Protein kinase C beta type (Homo sapiens) (P05771 2-671 limits assumed): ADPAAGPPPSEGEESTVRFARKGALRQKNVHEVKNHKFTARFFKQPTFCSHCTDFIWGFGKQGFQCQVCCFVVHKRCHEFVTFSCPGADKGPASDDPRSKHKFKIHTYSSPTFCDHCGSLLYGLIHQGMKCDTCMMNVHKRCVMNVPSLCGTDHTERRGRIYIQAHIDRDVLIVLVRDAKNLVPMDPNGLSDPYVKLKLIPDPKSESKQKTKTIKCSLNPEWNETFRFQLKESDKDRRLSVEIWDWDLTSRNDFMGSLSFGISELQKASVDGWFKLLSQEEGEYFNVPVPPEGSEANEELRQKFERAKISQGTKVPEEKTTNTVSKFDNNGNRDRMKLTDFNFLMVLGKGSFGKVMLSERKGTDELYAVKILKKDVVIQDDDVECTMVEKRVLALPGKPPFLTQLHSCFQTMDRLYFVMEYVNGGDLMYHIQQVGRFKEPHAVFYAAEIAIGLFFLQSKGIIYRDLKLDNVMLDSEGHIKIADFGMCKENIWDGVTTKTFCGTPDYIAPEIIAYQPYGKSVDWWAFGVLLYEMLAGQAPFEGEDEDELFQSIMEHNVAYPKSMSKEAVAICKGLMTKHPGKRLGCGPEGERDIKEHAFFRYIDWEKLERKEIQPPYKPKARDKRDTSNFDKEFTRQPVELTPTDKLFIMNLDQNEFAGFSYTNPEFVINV

BXPC-3 [2] = experiment: Induction of apoptosis in human BXPC-3 cells incubated for 24 hrs by PI and annexin V-FITC staining based flow cytometry; type: functional, cell-based
BXPC-3 [3] = experiment: Induction of apoptosis in human BXPC-3 cells assessed as increase in cleaved PARP level at 0.25 uM incubated for 30 mins by Western blot analysis; type: functional, cell-based
BXPC-3 [4] = experiment: Induction of apoptosis in human BXPC-3 cells assessed as increase in cleaved caspase-3 level at 0.25 uM incubated for 30 mins by Western blot analysis; type: functional, cell-based
BXPC-3 [5] = experiment: Induction of apoptosis in human BXPC-3 cells assessed as increase in cleaved caspase-7 level at 0.25 uM incubated for 30 mins by Western blot analysis; type: functional, cell-based
BXPC-3 [6] = experiment: Induction of apoptosis in human BXPC-3 cells assessed as increase in cleaved caspase-9 level at 0.25 uM incubated for 30 mins by Western blot analysis; type: functional, cell-based
[7] = target: Protein kinase C theta type (Homo sapiens, UniProt Q04759); experiment: Inhibition of PKCtheta phosphorylation at T538 residue in human BXPC-3 cells at 0.25 uM incubated for 4 hrs by Western blot analysis; type: cell-based
[8] = target: Protein kinase C delta type (Homo sapiens, UniProt Q05655); experiment: Inhibition of PKCdelta phosphorylation at T505 residue in human BXPC-3 cells at 1 uM incubated for 4 hrs by Western blot analysis; type: cell-based
Chain of Protein kinase C delta type (Q05655 whole entry, looked up): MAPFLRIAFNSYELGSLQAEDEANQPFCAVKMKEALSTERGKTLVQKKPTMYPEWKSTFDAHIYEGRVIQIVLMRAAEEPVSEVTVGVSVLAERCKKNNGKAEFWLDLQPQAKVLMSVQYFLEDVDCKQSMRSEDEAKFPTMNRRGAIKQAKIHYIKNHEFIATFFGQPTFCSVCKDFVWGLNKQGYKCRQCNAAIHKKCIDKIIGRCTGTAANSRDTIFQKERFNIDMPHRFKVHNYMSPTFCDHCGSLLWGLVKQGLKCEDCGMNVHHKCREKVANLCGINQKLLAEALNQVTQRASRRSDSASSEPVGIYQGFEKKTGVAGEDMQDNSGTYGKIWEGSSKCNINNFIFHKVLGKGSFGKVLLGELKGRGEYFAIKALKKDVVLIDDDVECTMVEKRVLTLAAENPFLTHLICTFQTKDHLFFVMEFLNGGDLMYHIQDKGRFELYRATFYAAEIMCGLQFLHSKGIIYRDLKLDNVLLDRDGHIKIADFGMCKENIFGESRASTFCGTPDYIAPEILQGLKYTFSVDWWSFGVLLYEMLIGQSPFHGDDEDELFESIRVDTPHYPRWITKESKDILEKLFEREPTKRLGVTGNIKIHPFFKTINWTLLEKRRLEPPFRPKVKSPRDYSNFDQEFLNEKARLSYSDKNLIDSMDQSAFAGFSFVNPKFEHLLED

[9] = target: Transcription factor p65 (Homo sapiens) (UniProt Q04206); experiment: Inhibition of p65 phosphorylation in human BXPC-3 cells at 0.5 uM measured within 1 hr by Western blot analysis; type: cell-based; details: time hrs <=1
Chain of Transcription factor p65 (Homo sapiens) (Q04206 whole entry): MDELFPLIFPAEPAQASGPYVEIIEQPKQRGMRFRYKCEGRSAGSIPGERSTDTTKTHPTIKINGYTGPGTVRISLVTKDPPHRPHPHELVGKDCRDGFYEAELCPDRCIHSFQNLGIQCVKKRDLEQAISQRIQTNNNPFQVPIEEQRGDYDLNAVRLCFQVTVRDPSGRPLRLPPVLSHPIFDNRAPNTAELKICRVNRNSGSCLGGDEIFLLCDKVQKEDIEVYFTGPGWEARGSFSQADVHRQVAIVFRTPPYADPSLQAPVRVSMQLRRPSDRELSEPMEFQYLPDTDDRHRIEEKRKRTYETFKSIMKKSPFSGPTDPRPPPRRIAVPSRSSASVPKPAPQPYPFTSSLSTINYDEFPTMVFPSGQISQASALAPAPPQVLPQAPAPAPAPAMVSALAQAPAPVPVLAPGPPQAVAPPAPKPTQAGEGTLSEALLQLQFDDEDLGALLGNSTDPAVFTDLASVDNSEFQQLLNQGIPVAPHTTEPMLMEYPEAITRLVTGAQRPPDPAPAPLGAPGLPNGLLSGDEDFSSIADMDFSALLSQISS

[10] = target: NF-kappa-B inhibitor alpha (Homo sapiens) (UniProt P25963); experiment: Inhibition of IkappaB-alpha phosphorylation in human BXPC-3 cells at 0.5 uM measured within 1 hr by Western blot analysis; type: cell-based; details: time hrs <=1
Chain of NF-kappa-B inhibitor alpha (Homo sapiens) (P25963 whole entry): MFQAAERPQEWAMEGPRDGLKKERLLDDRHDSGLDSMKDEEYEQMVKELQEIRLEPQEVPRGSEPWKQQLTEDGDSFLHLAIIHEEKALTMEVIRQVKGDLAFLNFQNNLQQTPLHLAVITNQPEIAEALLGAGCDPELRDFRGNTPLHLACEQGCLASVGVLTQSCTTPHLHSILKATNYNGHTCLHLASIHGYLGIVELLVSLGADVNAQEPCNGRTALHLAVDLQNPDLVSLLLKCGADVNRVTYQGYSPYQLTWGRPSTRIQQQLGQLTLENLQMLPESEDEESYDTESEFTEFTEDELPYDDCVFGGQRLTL

[11] = target: Inhibitor of nuclear factor kappa-B kinase subunit alpha (Homo sapiens) (UniProt O15111); experiment: Inhibition of IKKalpha phosphorylation in human BXPC-3 cells at 0.5 uM measured within 1 hr by Western blot analysis; type: cell-based; details: time hrs <=1
[12] = target: Inhibitor of nuclear factor kappa-B kinase subunit beta (Homo sapiens) (UniProt O14920); experiment: Inhibition of IKKbeta phosphorylation in human BXPC-3 cells at 0.5 uM measured within 1 hr by Western blot analysis; type: cell-based; details: time hrs <=1
Chain of Inhibitor of nuclear factor kappa-B kinase subunit beta (Homo sapiens) (O14920 whole entry): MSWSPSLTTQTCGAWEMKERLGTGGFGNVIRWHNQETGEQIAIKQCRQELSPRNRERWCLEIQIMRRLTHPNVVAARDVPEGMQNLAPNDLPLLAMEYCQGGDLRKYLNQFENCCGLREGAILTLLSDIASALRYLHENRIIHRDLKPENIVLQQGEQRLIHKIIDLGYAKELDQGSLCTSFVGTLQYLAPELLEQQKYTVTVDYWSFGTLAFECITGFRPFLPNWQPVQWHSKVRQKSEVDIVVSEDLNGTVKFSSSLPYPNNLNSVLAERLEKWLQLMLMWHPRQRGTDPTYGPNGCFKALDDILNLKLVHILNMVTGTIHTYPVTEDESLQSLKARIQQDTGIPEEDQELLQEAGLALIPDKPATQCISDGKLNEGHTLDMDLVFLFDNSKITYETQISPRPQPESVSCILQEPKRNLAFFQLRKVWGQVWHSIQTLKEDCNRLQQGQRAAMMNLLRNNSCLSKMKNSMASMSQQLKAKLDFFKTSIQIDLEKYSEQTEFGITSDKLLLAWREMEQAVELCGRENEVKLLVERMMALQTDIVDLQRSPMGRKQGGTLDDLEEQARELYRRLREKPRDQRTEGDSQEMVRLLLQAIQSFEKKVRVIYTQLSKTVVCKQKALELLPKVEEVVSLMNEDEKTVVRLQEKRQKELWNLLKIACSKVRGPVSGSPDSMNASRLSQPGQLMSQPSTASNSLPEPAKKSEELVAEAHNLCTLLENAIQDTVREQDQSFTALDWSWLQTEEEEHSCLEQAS

BXPC-3 [13] = experiment: Reduction in Bcl-2 protein expression in human BXPC-3 cells incubated for 24 hrs by Western blot analysis; type: functional, cell-based
BXPC-3 [14] = experiment: Reduction in Bcl-XL protein expression in human BXPC-3 cells incubated for 24 hrs by Western blot analysis; type: functional, cell-based
BXPC-3 [15] = experiment: Reduction in Mcl1 protein expression in human BXPC-3 cells incubated for 24 hrs by Western blot analysis; type: functional, cell-based
BXPC-3 [16] = experiment: Reduction in XIAP protein expression in human BXPC-3 cells incubated for 24 hrs by Western blot analysis; type: functional, cell-based
BXPC-3 [17] = experiment: Antitumor activity against patient-derived pancreatic cancer cells xenografted in BALB/c mouse model of patient-derived xenograft assessed as increased numbers of necrotic cells at 6 mg/kg, iv dosed once every 2 days for 18 days by H and E staining based analysis relative to control; type: functional, organism-based; details: Homo sapiens, time 18.0 day
BXPC-3 [18] = experiment: Antitumor activity against patient-derived pancreatic cancer cells xenografted in BALB/c mouse model of patient-derived xenograft assessed as increase in cleaved caspase-3 levels at 6 mg/kg, iv dosed once every 2 days for 18 days by Western blot analysis; type: functional, organism-based; details: Homo sapiens, time 18.0 day
BXPC-3 [19] = experiment: Antitumor activity against patient-derived pancreatic cancer cells xenografted in BALB/c mouse model of patient-derived xenograft assessed as increase in cleaved caspase- levels at 6 mg/kg, iv dosed once every 2 days for 18 days by Western blot analysis; type: functional, organism-based; details: Homo sapiens, time 18.0 day
BXPC-3 [20] = experiment: Antitumor activity against patient-derived pancreatic cancer cells xenografted in BALB/c mouse model of patient-derived xenograft assessed as reduction in p-PKCdelta protein levels at 6 mg/kg, iv dosed once every 2 days for 18 days by Western blot analysis; type: functional, organism-based; details: Homo sapiens, time 18.0 day
[21] = target: PKC alpha and beta-2 (Homo sapiens) (UniProt P17252+P05771); experiment: Inhibition of PKCalpha/beta II phosphorylation at T638/T641 residue in human BXPC-3 cells at 1 uM incubated for 4 hrs by Western blot analysis; type: cell-based
[22] = target: Protein kinase C alpha type (Homo sapiens) (UniProt P17252); experiment: Inhibition of PKCalpha phosphorylation in human BXPC-3 cells at 1 uM incubated for 4 hrs by Western blot analysis; type: cell-based
[23] = target: Protein kinase C beta type (Homo sapiens) (UniProt P05771); experiment: Inhibition of PKCbeta phosphorylation at S660 residue in human BXPC-3 cells at 1 uM incubated for 4 hrs by Western blot analysis; type: cell-based
[24] = target: Protein kinase C iota type/zeta type (Homo sapiens) (UniProt P41743+Q05513); experiment: Inhibition of PKCzeta/lambda phosphorylation at T410/T403 residue in human BXPC-3 cells at 1 uM incubated for 4 hrs by Western blot analysis; type: cell-based
Chain of Protein kinase C iota type/zeta type (Homo sapiens) (P41743 whole entry, looked up): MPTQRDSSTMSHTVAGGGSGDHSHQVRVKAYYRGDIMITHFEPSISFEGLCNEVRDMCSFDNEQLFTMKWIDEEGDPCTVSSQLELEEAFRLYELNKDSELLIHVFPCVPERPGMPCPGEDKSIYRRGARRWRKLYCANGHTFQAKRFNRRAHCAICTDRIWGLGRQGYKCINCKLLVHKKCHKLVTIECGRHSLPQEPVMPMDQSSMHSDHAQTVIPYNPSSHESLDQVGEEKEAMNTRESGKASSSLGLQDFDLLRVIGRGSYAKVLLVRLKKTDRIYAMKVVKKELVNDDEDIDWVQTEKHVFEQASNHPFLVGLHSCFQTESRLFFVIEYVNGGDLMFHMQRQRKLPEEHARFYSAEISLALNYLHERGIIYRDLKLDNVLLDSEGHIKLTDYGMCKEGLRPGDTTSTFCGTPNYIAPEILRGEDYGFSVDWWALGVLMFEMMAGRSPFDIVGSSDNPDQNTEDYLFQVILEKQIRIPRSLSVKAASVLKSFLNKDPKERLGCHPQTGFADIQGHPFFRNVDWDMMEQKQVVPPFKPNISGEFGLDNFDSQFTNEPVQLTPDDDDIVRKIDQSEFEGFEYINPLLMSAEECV
Chain of Protein kinase C iota type/zeta type (Homo sapiens) (Q05513 whole entry, looked up): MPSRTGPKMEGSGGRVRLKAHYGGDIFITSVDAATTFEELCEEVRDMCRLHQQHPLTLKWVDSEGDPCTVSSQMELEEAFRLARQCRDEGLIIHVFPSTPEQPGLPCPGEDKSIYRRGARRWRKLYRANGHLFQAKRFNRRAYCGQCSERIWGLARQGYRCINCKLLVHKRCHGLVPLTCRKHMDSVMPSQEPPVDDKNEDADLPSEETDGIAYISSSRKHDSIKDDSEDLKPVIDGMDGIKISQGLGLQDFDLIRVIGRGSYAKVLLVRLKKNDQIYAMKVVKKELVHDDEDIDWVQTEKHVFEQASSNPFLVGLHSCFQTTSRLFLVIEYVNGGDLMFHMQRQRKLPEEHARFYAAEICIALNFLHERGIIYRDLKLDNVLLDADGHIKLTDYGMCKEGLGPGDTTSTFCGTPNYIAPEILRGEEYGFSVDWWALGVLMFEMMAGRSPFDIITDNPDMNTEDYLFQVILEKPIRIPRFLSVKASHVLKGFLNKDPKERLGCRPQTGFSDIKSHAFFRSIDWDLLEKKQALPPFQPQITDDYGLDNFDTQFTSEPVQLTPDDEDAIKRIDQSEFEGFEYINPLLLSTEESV

[25] = target: Protein kinase C zeta type (Homo sapiens) (UniProt Q05513); experiment: Inhibition of PKCzeta phosphorylation in human BXPC-3 cells at 1 uM incubated for 4 hrs by Western blot analysis; type: cell-based
Chain of Protein kinase C zeta type (Homo sapiens) (Q05513 whole entry): as the sequence (Q05513 whole entry, looked up) above

[26] = target: Protein kinase C iota type (Homo sapiens) (UniProt P41743); experiment: Inhibition of PKClambda phosphorylation in human BXPC-3 cells at 1 uM incubated for 4 hrs by Western blot analysis; type: cell-based
Chain of Protein kinase C iota type (Homo sapiens) (P41743 whole entry): as the sequence (P41743 whole entry, looked up) above

[27] = Toxicity in BALB/c mouse model of patient-derived xenograft implanted with patient-derived pancreatic cancer cells assessed as effect on body weight at 30 mg/kg, ip QD for 18 days relative to control; type: organism-based; details: in vivo, 432 h, time 18 day
BXPC-3 [28] = experiment: Antitumor activity against human BXPC-3 cells xenografted in nude BALB/c mouse assessed as inhibition of tumor growth at 30 mg/kg, ip QD for 18 days relative to control; type: functional; details: BXPC-3, ip, 432 h, time 18 day, read-out: TGI
[29] = Toxicity in nude BALB/c mouse xenografted with human BXPC-3 cells assessed as effect on body weight level at 30 mg/kg, ip QD for 18 days relative to control; type: organism-based; details: in vivo, 432 h, time 18 day
[30] = Antitumor activity against patient-derived pancreatic cancer cells xenografted in BALB/c mouse model of patient-derived xenograft assessed as inhibition of tumor growth at 30 mg/kg, ip QD for 18 days relative to control; type: functional; details: Homo sapiens, Pancreatic cancer cell, 432 h, time 18 day, read-out: TGI
[31] = Toxicity in BALB/c mouse model of patient-derived xenograft implanted with patient-derived pancreatic cancer cells assessed as effect on normal anatomical structures of heart at 30 mg/kg, ip QD for 18 days relative to control; type: organism-based; details: in vivo, 432 h, time 18 day
[32] = Toxicity in BALB/c mouse model of patient-derived xenograft implanted with patient-derived pancreatic cancer cells assessed as effect on normal anatomical structures of liver at 30 mg/kg, ip QD for 18 days relative to control; type: organism-based; details: in vivo, 432 h, time 18 day
[33] = Toxicity in BALB/c mouse model of patient-derived xenograft implanted with patient-derived pancreatic cancer cells assessed as effect on normal anatomical structures of lung at 30 mg/kg, ip QD for 18 days relative to control; type: organism-based; details: in vivo, 432 h, time 18 day
[34] = Toxicity in BALB/c mouse model of patient-derived xenograft implanted with patient-derived pancreatic cancer cells assessed as effect on normal anatomical structures of spleen at 30 mg/kg, ip QD for 18 days relative to control; type: organism-based; details: in vivo, 432 h, time 18 day
[35] = Toxicity in BALB/c mouse model of patient-derived xenograft implanted with patient-derived pancreatic cancer cells assessed as effect on normal anatomical structures of kidney at 30 mg/kg, ip QD for 18 days relative to control; type: organism-based; details: in vivo, 432 h, time 18 day

## CN[C@@H]1C[C@H]2O[C@@](C)([C@@H]1OC)n1c3ccccc3c3c4c(c5c6ccccc6n2c5c31)C(=O)NC4=O (stereo in doubt; 15)
[1]
  inhibition: inactive
BXPC-3 [2]
  Activity: Dose-dependent effect
BXPC-3 [3]
  Activity: Active
BXPC-3 [4]
  Activity: Active
BXPC-3 [5]
  Activity: Active
BXPC-3 [6]
  Activity: Active
[7]
  inhibition: Active
[8]
  inhibition: Active
[9]
  inhibition: Active
[10]
  inhibition: Active
[11]
  inhibition: Active
[12]
  inhibition: Active
BXPC-3 [13]
  Activity: Dose-dependent effect
BXPC-3 [14]
  Activity: Dose-dependent effect
BXPC-3 [15]
  Activity: Dose-dependent effect
BXPC-3 [16]
  Activity: Dose-dependent effect
BXPC-3 [17]
  Activity: Active
BXPC-3 [18]
  Activity: Active
BXPC-3 [19]
  Activity: Active
BXPC-3 [20]
  Activity: Active
[21]
  inhibition: inactive
[22]
  inhibition: inactive
[23]
  inhibition: inactive
[24]
  inhibition: inactive
[25]
  inhibition: inactive
[26]
  inhibition: inactive

## CC(=O)c1cc2c(o1)C(=O)c1ccccc1C2=O [NAPABUCASIN]
[27]
  Activity: Non-Toxic
BXPC-3 [28]
  inhibition in vivo at 30 mg/kg: 34.2%
[29]
  Activity: Non-Toxic
[30]
  inhibition in vivo at 30 mg/kg: 41.8%
[31]
  Activity: Non-Toxic
[32]
  Activity: Non-Toxic
[33]
  Activity: Non-Toxic
[34]
  Activity: Non-Toxic
[35]
  Activity: Non-Toxic
